Article PMC12121771, “Innovation of eco-friendly TiO2 nano catalyst for new pyrimidine carbonitiriles candidates, assessed for significant antioxidant activity, anti-inflammatory effects, and by insilico studies” (PLOS One, 2025)
Converted amounts (≈) assume the structure as drawn.

How the values were obtained:
[1] = tested on: hERG; conditions: similar compounds listed by Pred-hERG/LabMol, Fig 9 and Fig 10, reference not given; cited from earlier work
[2] = Hemolytic assay (HRBC membrane stabilization, anti-inflammatory activity); assay type: cell-based, human; conditions: human, human red blood cells, 2% suspension, pH 7.4, 2% RBC, 1 hour 37°C; for hemolysis at 1 h, 100 ug/ml: Conc. 100 ug/ml; for hemolysis at 1 h, 200 ug/ml: Conc. 200 ug/ml; for hemolysis at 1 h, 400 ug/ml: Conc. 400 ug/ml; for hemolysis at 1 h, 600 ug/ml: Conc. 600 ug/ml; for hemolysis at 1 h, 800 ug/ml: Conc. 800 ug/ml; for hemolysis at 1 h, 1000 ug/ml: Conc. 1000 ug/ml
Experimental: (§1) The hemolysis essay of the synthesized compounds is summarized in Table 3 and Fig 4; the mean absorption rate of the samples, with isotonic solution Ab, and hemolysis % were calculated with a standard deviation. HRBC and membrane stabilization assay results provide valuable information about the potential anti-inflammatory effects of the newly synthesized pyrimidine carbonitrile derivatives. […] The results for the anti-inflammatory activity are in agreement and homogenous with those obtained from the antioxidant activity of the same compounds, as shown in Table 3. The interconnection between inflammation and oxidative stress plays a vital role in the induction of several chronic diseases, such as diabetes, rheumatoid arthritis, and inflammatory bowel disease—inflammation results in the release of inflammatory mediators and, subsequently, tissue damage. Oxidative stress occurs due to an imbalance between the production of the reactive oxygen species and the ability of the body to neutralize them. Several cellular mechanisms are involved in the anti-inflammatory activity of the tested compounds. […] The cellular mechanism of action was detected by suppression of myeloperoxidase and granulocyte superoxide formation. […] In addition, other mechanisms may explain the anti-inflammatory activity through the inhibitory effect on […] and lipo-oxygenase enzymes.
(§2) The hemolytic assay was performed using the method reported in [37, 40, 41]. Freshly collected human red blood cells were washed thrice with 150 mM NaCl (2500 rpm for 10 minutes). The plasma was removed, and the cells were suspended in phosphate buffer saline (pH 7.4) for 2% RBC concentration. Double-folded dilution concentrations (1000, 800, 600, 400, 200, 100, 50 μg/ml) of the compound were mixed with […] of RBC solutions, and the final reaction mixture volume was measured up to 1 ml by adding PBS. The reaction mixture was then placed in the water bath for 1 hour at 37°C. After incubation, the reaction mixture was centrifuged at 2500 rpm for 15 minutes. The supernatant was collected, and the optical density was measured at 541 nm, keeping the phosphate buffer saline blank. Deionized water was used as a positive control. The experiment was carried out in triplicate, and the mean ± SD was calculated.
(§3) Percentageofhemolysis=Absorbanceofsample−Absorbanceofblank×100/Absorbanceofpositivecontrol

[3] = DPPH radical scavenging method (antioxidant activity); conditions: for IC50ug/ml (DPPH scavenging): 0.1 mM DPPH in ethanol, 30 minutes, absorbance 517 nm, triplicate; for IC50: IC50 ug/ml converted with molecular wt
Experimental: The antioxidant activity of the newly synthesized compounds was evaluated using DPPH (2, 2-diphenyl-1-picrylhydrazyl (DPPH) assay). This assay measures the ability of a compound to neutralize the stable free radical DPPH by donating an electron or hydrogen atom. The results are illustrated in Table 2 and Fig 3. All the tests and analyses were undertaken in three replicates, and the results were averaged.
Different compounds’ free radical scavenging activity was measured by 1, 1- diphenyl-2-[…] (DPPH). In brief, a 0.1 mM solution of DPPH in ethanol was prepared. This solution (1 ml) was added to 3 ml. of the different compounds in ethanol at various concentrations (3.9, 7.8, 15.62, 31.25, 62.5, 125, 250, 500, 1000 μg/ml). Here, only those compounds solubilized in ethanol and their various concentrations were prepared by dilution. The mixture was shaken vigorously and allowed to stand at room temperature for 30 minutes. Then, absorbance was measured at 517 nm by using a spectrophotometer (UV-VIS Milton Roy). The reference standard compound used was ascorbic acid, and the experiment was done in triplicate. The IC 50 value of the sample, which is the concentration of sample required to inhibit 50% of the DPPH free radical, was calculated using the Log dose inhibition curve. The lower absorbance of the reaction mixture indicates higher free radical activity. The percent DPPH scavenging effect was calculated using the following equation: DPPH scavenging effect (%), or percent inhibition = A0 - A 1/ A0 × 100. A0 is the absorbance of the control reaction, and A1 is the absorbance in the presence of a test or standard sample [39].

[4] = tested on: human red blood cells; assay: Hemolytic assay (HRBC membrane stabilization, anti-inflammatory activity); assay type: cell-based; conditions: Conc. 100 ug/ml, 2% RBC, 1 hour 37°C
Experimental: as §1, §2, §3

Structure (SMILES) | IC50ug/ml (DPPH scavenging) [3] [µg/mL] | IC50 [3] [µM] | hERG Blocker / Non-Blocker annotation of similar compounds [1] | hemolysis at 1 h, 100 ug/ml [2] [%] | hemolysis at 1 h, 200 ug/ml [2] [%] | hemolysis at 1 h, 400 ug/ml [2] [%] | hemolysis at 1 h, 600 ug/ml [2] [%] | hemolysis at 1 h, 800 ug/ml [2] [%] | hemolysis at 1 h, 1000 ug/ml [2] [%] | Hemolysis % [4]
CCOC(=O)C1=NN(c2ccccc2)C(=C2SC(=Nc3nc(-c4ccccc4)cc(-c4ccccc4)c3C#N)N(c3ccccc3)C2=O)S1 [CHEMBL3408395] |  |  | Blocker |  |  |  |  |  |  | 
Cc1cc(C=C2SC(=Nc3ccccc3)NC2=O)c(C)n1-c1ccccc1 [CHEMBL599702] |  |  | Non-Blocker |  |  |  |  |  |  | 
N#Cc1c(-c2ccccc2)cc(-c2ccccc2)nc1N=C1SC(=C2SC(c3ccccc3)=NN2c2ccccc2)C(=O)N1c1ccccc1 [CHEMBL3408393] |  |  | Blocker |  |  |  |  |  |  | 
CC(=O)C1=NN(c2ccccc2)C(=C2SC(=Nc3nc(-c4ccccc4)cc(-c4ccccc4)c3C#N)N(c3ccccc3)C2=O)S1 [CHEMBL3408394] |  |  | Blocker |  |  |  |  |  |  | 
N#Cc1ccc(C2N=C3SCC=C(N)N3C(=O)C2C#N)cc1 (centres unmarked) [Compound 5, 4-Amino-8-(4-cyanophenyl)-6-oxo-7,8-dihydro-2H,6H-pyrimido[2,1-b][1,3]thiazine-7-carbonitrile] | 5.62 (≈ 18.2 µM) | 18.2 |  | 0.2 | 0.4 | 1.4 | 5.5 | 5.9 | 7 | 
O=C1O[C@H]([C@@H](O)CO)C(O)=C1O [Ascorbic acid, reference compound] | 4.63 (≈ 26.3 µM) | 26.3 |  |  |  |  |  |  |  | 
N#Cc1ccc(C2NC(=S)NC(=O)C2C#N)cc1 (centres unmarked) [Compound 1, 4-(4-cyanophenyl)-6-oxo-2-thioxohexahydropyrimidine-5-carbonitrile] | 25.13 (≈ 98.1 µM) | 98.1 |  | 7.5 | 9.5 | 12 | 12.4 | 13.2 | 13.9 | 
N#Cc1c(-c2ccccc2)cc(-c2ccccc2)nc1N=c1sc(C(=O)Nc2ccccc2)nn1-c1ccccc1 [CHEMBL3408390] |  |  | Blocker |  |  |  |  |  |  | 
N#Cc1c(-c2ccccc2)cc(-c2ccccc2)nc1N=C1SC(=C2SC(C(=O)Nc3ccccc3)=NN2c2ccccc2)C(=O)N1c1ccccc1 [CHEMBL3408396] |  |  | Blocker |  |  |  |  |  |  | 

Second part, led by results:

IC50ug/ml (DPPH scavenging) [3] [µg/mL] | IC50 [3] [µM] | Structure (SMILES) | hERG Blocker / Non-Blocker annotation of similar compounds [1] | hemolysis at 1 h, 100 ug/ml [2] [%] | hemolysis at 1 h, 200 ug/ml [2] [%] | hemolysis at 1 h, 400 ug/ml [2] [%] | hemolysis at 1 h, 600 ug/ml [2] [%] | hemolysis at 1 h, 800 ug/ml [2] [%] | hemolysis at 1 h, 1000 ug/ml [2] [%] | Hemolysis % [4]
6.21 (≈ 16.7 µM) | 16.7 | N#Cc1ccc(C2N=C(Nc3nc4ccccc4s3)NC(=O)C2C#N)cc1 (centres unmarked) [Compound 8, 2-(Benzo[d]thiazol-2-ylamino)-4-(4-cyanophenyl)-6-oxo-1,4,5,6-tetrahydro pyrimidine-5-carbonitrile] |  | 0 | 0.1 | 0.9 | 1.3 | 3 | 3.7 | no hemolysis
10.09 (≈ 37.3 µM) |  | CSC1=NC(c2ccc(C#N)cc2)C(C#N)C(=O)N1 (centres unmarked) [Compound 2, 4-(4-Cyanophenyl)-2-(methylthio)-6-oxo-1,4,5,6-tetrahydro pyrimidine-5-carbonitrile] |  | 0 | 0.1 | 0.1 | 0.3 | 0.3 | 2.2 | no hemolysis
35.9 (≈ 122 µM) | 122 | N#CCSC1=NC(c2ccc(C#N)cc2)C(C#N)C(=O)N1 (centres unmarked) [Compound 3, 2-((Cyanomethyl)thio)-4-(4-cyanophenyl)-6-oxo-1,4,5,6-trtrahydropyrimidine-5-carbonitrile] |  | 0.1 | 0.3 | 0.7 | 1.2 | 2.3 |  | 
212.28 (≈ 643 µM) | 643 | N#Cc1ccc(C2N=C(NNc3ccccc3)NC(=O)C2C#N)cc1 (centres unmarked) [Compound 9, 4-(4-Cyanophenyl)-6-oxo-2-(2-phenylhydrazine)-1,4,5,6-tetrahydro pyrimidine-5-carbonitrile] |  | 2.9 | 4.3 | 5 | 9 | 10 | 14.4 | 
35.31 (≈ 113 µM) | 113 | CC(=O)CSC1=NC(c2ccc(C#N)cc2)C(C#N)C(=O)N1 (centres unmarked) [Compound 4, 4-(4-Cyanophenyl)-6-oxo-2-((2-oxo-propyl)thio)-1,4,5,6-tetrahydro-pyrimidine-5-carbonitrile] |  | 1.3 | 1.8 | 3.6 | 5.9 | 7.8 | 9.3 | 
46.69 (≈ 158 µM) |  | N#Cc1ccc(C2N=C3SCC(=O)N3C(=O)C2C#N)cc1 (centres unmarked) [Compound 6, 7-(4-Cyanophenyl)-3,5-dioxo-2,3,6,7-tetrahydro-5H-thiazolo[3,2-a]pyrimidine-6-carbonitrile] |  | 2.1 | 3.1 | 4 | 4.6 | 12.8 | 14.3 | 
